{
  "source": "patent US7297353B2",
  "about": "“Use of anemonin for treating aseptic inflammations” (priority 2000, dated 2007)",
  "key": {"[1]": {"system": "pain induced by hot plate", "test": "Analgesic test with hot plate", "type": "in vivo, mice", "details": "25 mg/kg intraperitoneal", "protocol": "This experiment included 4 groups of female mice, totaling 64 and each weighed 18-22 g, selected for normal pain reaction with 55° C. hot plate: high concentration group, low concentration group, dolantin group and control group. The route of administration and dosage are the same as described in the test with formalin. Dolantin was intraperitoneal injected and other groups received test medication on left and right hind feet and abdomen. 30, 60 and 90 minutes after the administration, the mice were put on a 55° C. hot plate and the latent time of each mouse for pain reaction was determined."}, "pain induced by formalin": {"system": "pain induced by formalin", "test": "Analgesic test with formalin", "type": "in vivo, mice", "details": "25 mg/kg intraperitoneal", "protocol": "Dolantin was intraperitoneal injected and other groups received test medication on left and right hind feet. 15 minutes after administration, 0.03 ml of 2.5% formalin was given to each mouse by subcutaneous injection on right hind foot and then the test medication was applied again. Then, the number of times of each mouse's licking its right hind foot in 15 minutes was counted."}, "skin": {"system": "skin", "test": "Skin allergic test", "details": "guinea pigs"}, "[2]": {"system": "swelling of rat's hind foot", "test": "Anti-swelling test on rat's hind foot (carrageenan)", "type": "in vivo, rats", "details": "0.025% ointment", "protocol": "This experiment included 4 groups of rats totaling 40 and each weighed 200-250 g: high concentration group, low concentration group (12.5 mg/25 ml, 6.25 mg/25 ml respectively), fluocinolone acetonide group, control group (the same volume of 25% ethanol). Fluocinolone acetonide was given using a 0.025% ointment, and other groups received corresponding medicament on the left and right hind feet prior to subcutaneous injection of 0.1 ml of 1% carrageenan on the metatarsus of each rat's right hind foot. Immediately after the administration of carrageenan, corresponding medicament was applied on the right hind foot. The metatarsal perimeters of right and left hind foot of each rat were measured 2, 3, 4, and 5 hours after the final administration. The difference between the metatarsal perimeters of the two feet of each rat is taken as a measure of swelling. Corresponding medicament was applied again on rat's right hind foot after each measurement."}, "[3]": {"system": "carrageenan-induced paw edema", "test": "Acute hind paw edema of rats induced by carrageenan", "type": "in vivo", "details": "for Paw edema: FAA group", "protocol": "The animals were injected subcutaneously with carrageenan (10 μl of 1% solution in saline) into the right paw. Anti-inflammatory properties of external anemonin were studied by applying with various liniment solution of anemonin (0.125, 0.5, 2 mg/ml, 0.5 ml) for 2 h immediately after administration of carrageenan. The rats of control group were treated with the same volume of solvent (25% ethanol). The paw volumes of rats were measured at 0, 2 h, 3 h, 4 h, 5 h, 6 h after injection of carrageenan. The paw edema was represented by subtracting the volume of the untreated same paw from that of the treated paw."}, "[4]": {"system": "dimethylbenene-induced ear swelling", "test": "Acute ear edema of mice induced by dimethylbenene", "type": "in vivo", "details": "positive control applied on ear; two hours after dimethylbenene", "protocol": "The mice were randomly divided into 5 groups. Thirty minutes and sixty minutes after applying dimethylbenene (50 μl) to the anterior and posterior surfaces of the right ear, 25% ethanol (50 μl), the linimene solutions of anemonin (0.05, 0.5, 5 mg/ml, 50 μl) and FAA (a positive control) were applied on the same ears of mice respectively. The left ear was considered as control. Two hours after dimethylbenene application, mice were killed and both ears were removed. Circular sections were taken, using a 9 mm-diameter borer, and weighed. The increase in weight caused by the irritant was measured by subtracting the weight of the untreated left ear section from that of the treated right ear section."}},
  "data": [
    {"compound": "CCOC(=O)C1(c2ccccc2)CCN(C)CC1", "note": "[Dolantin]", "values": [
      {"measurement": "Increase of pain threshold (%)", "setting": "[1]; 30 min after administration", "value": 66, "unit": "%"},
      {"measurement": "Latent time for pain reaction", "setting": "[1]; 30 min after administration", "value": "49.86 ± 5.23", "unit": "s"},
      {"measurement": "Increase of pain threshold (%)", "setting": "[1]; 60 min after administration", "value": 80, "unit": "%"},
      {"measurement": "Latent time for pain reaction", "setting": "[1]; 60 min after administration", "value": "54.29 ± 9.27", "unit": "s"},
      {"measurement": "Increase of pain threshold (%)", "setting": "[1]; 90 min after administration", "value": 94, "unit": "%"},
      {"measurement": "Latent time for pain reaction", "setting": "[1]; 90 min after administration", "value": "58.31 ± 11.23", "unit": "s"},
      {"measurement": "Rate of inhibition(%)", "setting": "pain induced by formalin", "value": 100, "unit": "%"},
      {"measurement": "Times of licking hind feet", "setting": "pain induced by formalin; 15 minutes", "value": "0.00 ± 0.00"}
    ]},
    {"compound": "O=[N+]([O-])c1ccc(Cl)c([N+](=O)[O-])c1", "note": "[positive control, 2,4-dinitrochlorobenzene]", "values": [
      {"measurement": "allergenic intensity", "setting": "skin", "value": "extreme"},
      {"measurement": "allergenic rate", "setting": "skin", "value": 100, "unit": "%"}
    ]},
    {"compound": "CC1(C)O[C@@H]2C[C@H]3[C@@H]4C[C@H](F)C5=CC(=O)C=C[C@]5(C)[C@@]4(F)[C@@H](O)C[C@]3(C)[C@]2(C(=O)CO)O1", "note": "[Fluocinolone acetonide]", "values": [
      {"measurement": "Degree of tumefaction (cm)", "setting": "[2]; 2 hours", "value": "0.91 ± 0.20", "unit": "cm"},
      {"measurement": "Degree of tumefaction (cm)", "setting": "[2]; 3 hours", "value": "0.92 ± 0.13", "unit": "cm"},
      {"measurement": "Degree of tumefaction (cm)", "setting": "[2]; 4 hours", "value": "0.90 ± 0.18", "unit": "cm"},
      {"measurement": "Degree of tumefaction (cm)", "setting": "[2]; 5 hours", "value": 0.92, "unit": "cm"}
    ]},
    {"compound": "CC(=O)OCC(=O)[C@@]12OC(C)(C)O[C@@H]1C[C@H]1[C@@H]3C[C@H](F)C4=CC(=O)C=C[C@]4(C)[C@@]3(F)[C@@H](O)C[C@@]12C", "note": "[FAA, Fluocinoloni Acetonidi Acetas, reference compound]", "values": [
      {"measurement": "Paw edema", "setting": "[3]; 2 h", "value": "0.13 ± 0.05", "unit": "mL"},
      {"measurement": "Paw edema", "setting": "[3]; 3 h", "value": "0.09 ± 0.07", "unit": "mL"},
      {"measurement": "Paw edema", "setting": "[3]; 4 h", "value": "0.11 ± 0.08", "unit": "mL"},
      {"measurement": "Paw edema", "setting": "[3]; 5 h", "value": "0.09 ± 0.07", "unit": "mL"},
      {"measurement": "Paw edema", "setting": "[3]; 6 h", "value": "0.09 ± 0.11", "unit": "mL"},
      {"measurement": "edema formation", "setting": "[3]; steroidal anti-inflammatory drug, positive control", "value": "significantly inhibited"},
      {"measurement": "Ear swellin", "setting": "[4]", "value": "10 ± 1.8", "unit": "mg"}
    ]}
  ]
}
